Assay: Solubility of emulsifier/stabilizer in the coating solution (visual evaluation)
Format: physicochemical
Experimental: For this experiment, coating solutions consisted of: 200 g tap water, 14 g SAS (7 w %), 30 g cornstarch (15 w %), and varying amounts of diverse emulsifiers/stabilizers.
Treatment: For each emulsifying material, one grape tomato was soaked for 1 minute in respective coating solution, and allowed to dry on a cooling tray. If material generated a visually preferred coating, 8 more grape tomatoes were coated (ntotal=9) in the same solution to generate enough samples for a microbial test. […] A second grape tomato was soaked, and if the stickiness improved, the concentration of the emulsifying ingredient was further increased until preferred coating was achieved. 8 more tomatoes were coated at preferred concentration (ntotal=9) for microbial testing.
Evaluation: Coatings were photographed and evaluated visually after the material dried. Microbial test of tomatoes with preferred coatings: Grape tomatoes were stored for 7 days at room temperature on cooling trays. Three tomatoes (triplicates) were swabbed with pre-wetted cotton swabs after: 24 hours, 3 days and 7 days. For dilution purpose, the swabs were transferred to Eppendorf tubes with 1 ml PBS. Three 1 ul loops (triplicates) were used to transfer three 1 ul samples per Eppendorf tube to nutrient agar plates. Per swab: 1 Eppendorf tubes and 3 nutrient agar plates. Per tomato: 3 Eppendorf tubes and 9 nutrient agar plates. Nutrient agar plates were incubated at room temperature for 7 days. Colony forming units were counted after: 24 hours, 3 days and 7 days.

With `OCC(O)CO` [Vegetable glycerin, glycerin] the “solubility in the water-based coating solution” value was “good solubility”, the “Coating solution (Solubility of emulsifier/stabilizer)” value (200 g tap water, 14 g SAS, 30 g cornstarch plus emulsifier, visual evaluation) was “Good” and the Solubility (overall assessment, solubility in coating solution) was “Good”.

Reference: patent US20160324172A1, “Post-Harvest Coating for Fresh Produce” (Jones-Hamilton Co., priority 2015, published 2016)
